Source: patent US8114885B2, “Chemical compounds” (GlaxoSmithKline LLC, priority 2000, dated 2012)

test system: HUVEC; assay: Human Umbilical Vein Endothelial Cell (HUVEC) proliferation assay (BrdU incorporation); format: cell-based; conditions: VEGF-stimulated HUVEC, 72 hrs, read-out: Inhibition of HUVEC proliferation IC50
Method: Human Umbilical Vein Endothelial Cell (HUVEC) Proliferation Assay (BrdU Incorporation) Materials
HUVEC cells and EGM-MV (Endothelial cell growth medium—microvascular) were purchased from Clonetics (San Diego, Calif.). VEGF and bFGF were purchased from R&D Systems (Minneapolis, Minn.). Anti-BrdU antibody was obtained from Chemicon International (Temecula, Calif.).
HUVECs were routinely maintained in EGM-MV medium and were used within passage 7. HUVECs were plated at a density of 2500 cells/well in M199 medium containing 5% FBS (Hyclone) in type I collagen coated plate (Becton Dickinson). The plate was incubated at 37° C. overnight. The medium was removed by aspiration, and test compounds were added to each well in a volume of 0.1 ml/well in serum-free M199 medium. Compound concentrations ranged from 1.5 nM to 30 micromolar. The plate was incubated for 30 min at 37° C. Another 0.1 ml of serum-free M199 medium containing BSA and VEGF (or bFGF) was added to give a final concentration of 0.1% BSA and 10 ng/ml VEGF (0.3 ng/ml bFGF). The plate was incubated at 37° C. for 72 hrs. BrdU was added to each well after the first 48 hrs to give a concentration of 10 micromolar. The calorimetric ELISA assay was performed according to manufacturer's (Roche Molecular Sciences) instructions, with detection by absorbance reading at 450 nm. Results were plotted as concentration of test compound vs. absorbance to give an IC50 value for inhibition of BrdU incorporation.

First: Cc1n[nH]c2cc(N(C)c3ccnc(Nc4cccc([S+](C)[O-])c4)n3)ccc12 (centres unmarked) [Example 66, N^4-methyl-N^4-(3-methyl-1H-indazol-6-yl)-N^2-[3-(methylsulfinyl)phenyl]-2,4-pyrimidinediamine]
Second: Cc1n[nH]c2cc(N(C)c3ccnc(Nc4cc(S(C)(=O)=O)ccc4F)n3)ccc12 [Example 67, N^2-[2-fluoro-5-(methylsulfonyl)phenyl]-N^4-methyl-N^4-(3-methyl-1H-indazol-6-yl)-2,4-pyrimidinediamine]
The IC50 of the first is lower: 1 to 200 nM for the first, 201 to 500 nM for the second. The first is the more potent here.

`COc1ccc(S(C)(=O)=O)cc1Nc1nccc(N(C)c2ccc3c(C)n[nH]c3c2)n1` [Example 68, N^2-[2-methoxy-5-(methylsulfonyl)phenyl]-N^4-methyl-N^4-(3-methyl-1H-indazol-6-yl)-2,4-pyrimidinediamine] and `Cc1ccc(Nc2nccc(N(C)c3ccc4c(C)n(C)nc4c3)n2)cc1S(N)(=O)=O` [Example 69, 5-({4-[(2,3-dimethyl-2H-indazol-6-yl)(methyl)amino]pyrimidin-2-yl}amino)-2-methylbenzenesulfonamide] fall in the same range of IC50: 1 to 200 nM for the first, 1 to 200 nM for the second.

`Cc1c2ccc(N(C)c3ccnc(Nc4cccc(S(N)(=O)=O)c4)n3)cc2nn1C` [Example 70, 3-({4-[(2,3-dimethyl-2H-indazol-6-yl)(methyl)amino]pyrimidin-2-yl}amino)benzenesulfonamide] and `CCn1nc2cc(N(C)c3ccnc(Nc4cccc(S(N)(=O)=O)c4)n3)ccc2c1C` [Example 76, 3-({4-[(2-ethyl-3-methyl-2H-indazol-6-yl)(methyl)amino]pyrimidin-2-yl}amino)benzenesulfonamide] fall in the same range of IC50: 1 to 200 nM for the first, 1 to 200 nM for the second.

`Cc1c2ccc(N(C)c3ccnc(Nc4ccc(CCS(N)(=O)=O)cc4)n3)cc2nn1C` [Example 71, 2-[4-({4-[(2,3-dimethyl-2H-indazol-6-yl)(methyl)amino]pyrimidin-2-yl}amino)phenyl]ethanesulfonamide] and `Cc1c2ccc(N(C)c3ccnc(Nc4ccc(CS(C)(=O)=O)cc4)n3)cc2nn1C` [Example 72, N^4-(2,3-dimethyl-2H-indazol-6-yl)-N^4-methyl-N^2-{4-[(methylsulfonyl)methyl]phenyl}pyrimidine-2,4-diamine] fall in the same range of IC50: 1 to 200 nM for the first, 1 to 200 nM for the second.

`CN(c1ccc2c(CO)n(C)nc2c1)c1ccnc(Nc2cccc(S(N)(=O)=O)c2)n1` [Example 73, 3-({4-[[3-(hydroxymethyl)-2-methyl-2H-indazol-6-yl](methyl)amino]pyrimidin-2-yl}amino)benzenesulfonamide] and `Cc1nc2cc(N(C)c3ccnc(Nc4cccc(S(N)(=O)=O)c4)n3)ccc2n1C` [Example 74, 3-({4-[(1,2-dimethyl-1H-benzimidazol-5-yl)(methyl)amino]pyrimidin-2-yl}amino)benzenesulfonamide] fall in the same range of IC50: 1 to 200 nM for the first, 1 to 200 nM for the second.

`CN(c1ccc2c(c1)nc(Cc1ccccc1)n2C)c1ccnc(Nc2cccc(S(N)(=O)=O)c2)n1` [Example 75, 3-({4-[(2-benzyl-1-methyl-1H-benzimidazol-5-yl)(methyl)amino]pyrimidin-2-yl}amino)benzenesulfonamide] and `Cc1c2ccc(N(C)c3ccnc(Nc4cccc(S(N)(=O)=O)c4)n3)cc2nn1Cc1cccc(Cl)c1` [Example 77, 3-({4-[[2-(3-chlorobenzyl)-3-methyl-2H-indazol-6-yl](methyl)amino]pyrimidin-2-yl}amino)benzenesulfonamide] fall in the same range of IC50: 1 to 200 nM for the first, 1 to 200 nM for the second.

First: Cc1c2ccc(N(C)c3ncnc(Nc4cccc(S(N)(=O)=O)c4)n3)cc2nn1C [Example 78, 3-({4-[(2,3-dimethyl-2H-indazol-6-yl)(methyl)amino]-1,3,5-triazin-2-yl}amino)benzenesulfonamide]
Second: Cc1ccc(Nc2ncnc(N(C)c3ccc4c(C)n(C)nc4c3)n2)cc1S(N)(=O)=O [Example 79, 5-({4-[(2,3-dimethyl-2H-indazol-6-yl)(methyl)amino]-1,3,5-triazin-2-yl}amino)-2-methylbenzenesulfonamide]
The IC50 of the first is lower: 1 to 200 nM for the first, 201 to 500 nM for the second. The first is the more potent here.
